Series [1] in a line: Unspecific accumulation at sites without amyloid (applicant's studies). As to conditions: results of our studies.
For series [2] the following is noted: International Publication No. WO03/106439; cited from earlier work.
Series [3] is described as follows: Partition coefficient based on HPLC. It is filed as physicochemical. Conditions: mobile phase 50 mM triethylamine phosphate (pH 7.2)/acetonitrile=40/60. Here is the method: Measurements of partition coefficient based on HPLC The partition coefficient by HPLC (hereinafter referred to as log PHPLC) was measured by the following method.
First, compounds for evaluation shown in Table 1-5 were dissolved at a concentration of 1 mg/mL in methanol containing 10% dimethylsulfoxide to prepare sample solutions. One μL of the sample solution was subjected to HPLC analysis under the following conditions to determine the elution time (t0) of the solvent and the elution time (tR) of each compound.
Column: Prodigy ODS (3) (product name; manufactured by phenomenex; size: 4.6×250 mm)
Mobile phase: a mixed solution of 50 mM triethylamine phosphate (pH 7.2)/acetonitrile=40/60
Detector: ultraviolet visible absorptiometer (detection wavelength: 282 nm)
Using the obtained t0 and tR, the retention factor (hereinafter referred to as K′HPLC value) of each compound for evaluation was determined according to the following calculation formula (1-3).
After the individual solutions were stirred for 30 seconds, the solutions were centrifuged at 2,000 rpm for 60 minutes. 1 mL each of the octanol phase and the water phase was fractionated, and the radioactivity was measured by an autowell gamma system (manufactured by Aloka Co., Ltd.: Type ARC-301B). Based on the obtained radioactivity, log Poctanol values were calculated according to the above equation (1-2). […]

The subject of series [4] is Salmonella typhimurium TA98 and TA100. In words: Reverse mutation test (Ames test), overall judgment. As to conditions: TA98 and TA100, with and without S9mix. It is filed as cell-based. Here is the method: (§1) In order to examine mutagenicity of Compound I-1, I-2, I-4 and I-5, reverse mutation test using Salmonella typhimurium TA98 and TA100 (hereinafter referred to as Ames test) was conducted.
(§2) The test was conducted without addition of S9mix and with addition of S9mix. Dimethylsulfoxide was used as a negative control. A positive control was 2-(2-furyl)-3-(5-nitro-2-furyl)acrylamide in case S9mix was not added, and 2-aminoanthracene in case S9mix was added.
(§3) The amount of each sample to be added to the test plate was 7 dosages (geometric ratio 4) with the maximum dose being 1250 μg/plate for Compounds I-1 and I-5, and 7 dosages (geometric ratio 3) with the maximum dose being 5000 μg/plate for Compounds I-2 and I-4. After a sample to be examined and a strain (TA98 or TA100), or a sample to be examined, S9mix and the strain were mixed together, the mixture was multilayered using soft agar on a medium of a test plate, and then incubated at 37° C. for 48 hours.
The numbers of reverse mutation colonies of the respective strains in the group treated with Compounds I-1, I-2, I-4 and I-5 were less than two times the number in the group treated with the negative control, regardless of addition of S9mix and the addition amount of a sample to be examined. From the aforementioned results, it is judged that Compounds I-1, I-2, I-4 and I-5 are negative in the Ames test and have no mutagenicity.

The target in series [5] is T1, amyloid (aggregated Aβ1-40) (Homo sapiens, UniProt P05067).
T1 construct: Aβ1-40 (Peptide Institute, INC.) was dissolved in phosphate buffer (pH 7.4); purchased Peptide Institute, INC
T1 sequence (P05067 672-711 limits assumed): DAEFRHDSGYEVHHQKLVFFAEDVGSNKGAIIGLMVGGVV
In words: Measurement of affinity with amyloid: inhibition of [125I]3′-I-BTA-0 binding. As to conditions: [125I]3′-I-BTA-0 400 pmol/L, amyloid 1 μmol/L, 22° C., 3 hours. As for the experimental part:
Affinity of the present compounds with amyloid was examined by the following in vitro binding tests.
(1) Aβ1-40 (Peptide Institute, INC.) was dissolved in phosphate buffer (pH 7.4) and shaken at 37° C. for 62-72 hours, to obtain a 1 mg/mL suspension of aggregated Aβ (hereinafter referred to as amyloid suspension in this Example).
(3) According to the method described in a literature (Wang, Y., et al., J. Labeled Compounds Radiopharmaceut. 44, 5239 (2001)), [^125I]2-(3′-iodo-4′-aminophenyl)benzothiazole (hereinafter referred to as […]) was prepared from a labeling precursor 2-(4′-aminophenyl)benzothiazole, and dissolved in ethanol.
(5) Samples in which [^125I]3′-I-BTA-0, each compound for evaluation and amyloid were dissolved in a 0.1% bovine serum albumin-containing phosphate buffer (pH 7.4) at final concentrations shown in Table 1-2 were prepared. The resulting samples were filled in each well (about 0.3 mL in volume) of a 96-well microplate.
(6) The microplate filled with the sample solutions was shaken at a given rate (400 rpm) at 22° C. for 3 hours. Then, each sample solution was filtered through a glass fiber filter (trade name: Mulutiscreen™-FC, manufactured by Millipore), to separate the [^125I]3′-I-BTA-0 attached to amyloid from the free [^125I]3′-I-BTA-0.
(7) The glass fiber filter used for the filtration of each sample solution was washed with a 0.1% bovine serum albumin-containing phosphate buffer (pH 7.4) (0.5 mL×5), and radioactivity of the glass fiber filter was measured with an autowell gamma system (manufactured by Aloka, Type: ARC-301B).
(8) Separately, a solution of containing 15 μmol/L of 6-Me-BTA-2, […] of [^125I]3′-I-BTA-0 and 1 μmol/L of Aβ1-40 were prepared and subjected to the same procedures as described above in (6) and (7) to measure a radioactivity level. The measured radioactivity level was defined as the background radioactivity level, and used in the calculation of the inhibition ratio (hereinafter referred to as BG).
(9) Using the radioactivity levels measured above in (7) and (8), the inhibition ratio was determined by the following formula (1-1).
A graph in which values converted by probit transformation from the obtained inhibition ratios were plotted relative to logarithms of concentrations of compounds for evaluation was prepared to obtain an approximate straight line by the least square method. Using the line, the concentration of each compound for evaluation was determined, at which the radioactivity level is half of the level of the sample free from each compound for evaluation, and was defined as a 50% inhibition concentration of each compound (hereinafter referred to as IC50% value). Using the value as an indicator, affinity of each compound for evaluation with amyloid (aggregated Aβ1-40) was evaluated.

The test system of series [6] is Salmonella typhimurium TA100. The series is described as follows: Reverse mutation test (Ames test), TA100. It is filed as cell-based. Here is the method: as §1, §2, §3
On the technique in general: The Ames test detects mutagens through reverse mutation in bacteria.

Series [7] relates to Salmonella typhimurium TA98. The series is described as follows: Reverse mutation test (Ames test), TA98. The series is classed as cell-based. Here is the method: as §1, §2, §3
In series [8] the test system is Chinese Hamster fibroblast cell line (CHL/IU cell). In words: Chromosome aberration test. The series is classed as cell-based. Conditions: with or without S9 short-term treatment and 24-hour continuous treatment; 0.15-1.2 mg/mL. Here is the method:
In order to examine whether Compound I-4 can induce chromosome aberration, the chromosome aberration test was conducted using Chinese Hamster fibroblast cell line (CHL/IU cell) in a culture system with or without addition of S9 by short-term treatment process and in a 24-hour culture system by continuous treatment process. The addition amount of a sample to be tested was set to 1.2, 0.6, 0.3, and 0.15 mg/mL for all the respective culture systems.

Series [9] concerns bone marrow cells of Crlj:CD1 (ICR) male mouse. In words: Micronucleus test. It is filed as in vivo. As to conditions: single oral administration 250-2000 mg/kg, 24 and 48 hours. Here is the method:
In order to study mutagenicity (in vivo) of Compound I-4, induction of micronucleated polychromatic erythrocyte (hereinafter referred to as MNPCE) was examined using bone marrow cells of Crlj:CD1 (ICR) male mouse.
0 mg/kg (negative control group), 250, 500, 1000 and 2000 mg/kg (test sample group) were set as doses for the test. Mice were sacrificed 24 and 48 hours after single oral administration, and bone marrow smear was prepared and observed. Further, a single dose of MMC at 2 mg/kg was abdominally administrated in positive control group, mice were sacrificed 24 hours after the administration, and then bone marrow smear was prepared and observed.
As statistical analysis, significance tests were conducted by Wilcoxon rank sum test for the appearance frequency of MNPCE and the ratio of polychromatic erythrocyte (hereinafter referred to as PCE) to the total red blood cell (hereinafter referred to as RBC) in each administration group concerning the test sample and positive control groups relative to the negative control group and concerning these groups relative to each other where the significance level was set to less than 5% and less than 1%, respectively.

Series [10] is described as follows: Transferability into brain and clearance. The series is classed as in vivo, male Wistar rats. As to conditions: rats, intravenous injection. The source says:
Three animals were used for Experiment I-20 and Comparative Experiment I-9, and two animals were used for Experiment I-21 at the respective time points.

Series [11] is described as follows: Partition coefficient based on the octanol extraction method (Example I-29). As to conditions: octanol / 10 mmol/L phosphate buffer (pH 7.4), Table I-9. It is filed as physicochemical. As for the experimental part: To 2 mL of octanol, 10 μL each of the prepared sample solutions was added, and 2 mL of a 10 mmol/L phosphate buffer (pH 7.4) was further added, followed by stirring for 30 seconds.

Series [12] can be described thus: Partition coefficient based on the octanol extraction method. The series is classed as physicochemical. Conditions: octanol / 10 mmol/L phosphate buffer (pH 7.4).
Method: After the mixture was centrifuged with a low-speed centrifuge (2000 rpm×60 min.), the octanol layer and the water layer were sampled each in an amount of 1 mL, and subjected to measurement of radioactivity count with an autowell gamma system (manufactured by Aloka, Type: ARC-301B). Using the obtained radioactivity count, log Poctanol was calculated in accordance with the equation (1-2).
Series [13] can be described thus: Transferability into brain and clearance (2). It is filed as in vivo, male Wistar rats. Conditions: rats, intravenous injection, Table 1-10.
Method: 0.05 mL each of these solutions was injected under thiopental anesthesia into the tail vein of respective Wistar rats (7-week old). The rats were sacrificed by bleeding from abdominal artery, and brains were removed and subjected to measurement of mass of brains and further subjected to measurement of radioactivity (hereinafter referred to as A in this Example) with a single channel analyzer (detector type: SP-20 manufactured by OHYO KOKEN KOGYO Co., Ltd.) 2, 5, 30 and 60 minutes after the injection. Also, radioactivity (hereinafter referred to as B in this Example) of the rest of the whole body was measured in the same manner as above. Using these measurement results, radioactive distribution per unit weight of brain (% ID/g) at the respective time points were calculated in accordance with the following formula (1-7).
Three animals were used for experiment at the respective time points.

The structures appear in SMILES notation.

On to `CN(C)c1ccc(-c2cn3cc(I)ccc3n2)cc1` [IMPY, 6-iodo-2-[4′-(N,N-dimethylamino)phenyl]imidazo[1,2-a]pyridine], for which, in [1], the “unspecific accumulation on sites other than amyloid deposition” value was “accumulates unspecifically on white matter or other sites where amyloid is not deposited”. Moreover, the reverse mutation test result in series [2] is on record as “positive”. The logPHPLC value in [3] amounted to 2.1.
A word on the IC50: it is the point on the concentration scale where inhibition reaches its midpoint. A lower IC50 goes with higher potency. For the compound `FCCOc1ccc(-c2cn3cc(I)ccc3n2)cc1` [Compound I-4, 2-[4′-(2″-fluoroethoxy)phenyl]-6-iodoimidazo[1,2-a]pyridine], the Ames test judgment result in series [4] is “negative”. The compound further registered an IC50 in series [5] of 900 pM. The “Mutagenicity, TA100, With addition of S9mix” value in [6] (with S9mix) is on record as “Negative”. In addition, the “Mutagenicity, TA100, Without addition of S9mix” value in series [6] (without S9mix) is recorded as “Negative”. In addition, the “Mutagenicity, TA98, With addition of S9mix” value in [7] (with S9mix) is recorded as “Negative”. Also, the “Mutagenicity, TA98, Without addition of S9mix” value in series [7] (without S9mix) is given as “Negative”. The “capability of inducing chromosome aberration” value in series [8] is reported as “negative”. Further, the “mutagenicity (in vivo), induction of micronucleus” value in series [9] is “negative”.
As for `CN(C)c1ccc(-c2cn3cc([123I])ccc3n2)cc1` [[^123I]-IMPY, reference compound], the “Radioactive distribution per unit weight in brain, After 2 min.” value was 1.02 % ID/g in series [10] (2 min.) and 1.19 % ID/g in series [13] (2 min.). In addition, the “Radioactive distribution per unit weight in brain, After 5 min.” value in [10] (5 min.) came out at 0.99 % ID/g; in series [13] (5 min.) it was 0.97 % ID/g. Moreover, the “Radioactive distribution per unit weight in brain, After 30 min.” value in [10] (30 min.) was 0.20 % ID/g; in series [13] (30 min.) it was 0.23 % ID/g. The “Radioactive distribution per unit weight in brain, After 60 min.” value in series [10] (60 min.) worked out at 0.08 % ID/g; in [13] (60 min.) it was 0.09 % ID/g. Moreover, the logPoctanol value in series [11] and in [12] was 2.1 each time.

The values above are taken from patent publication US20100267952A1, “USE OF NOVEL COMPOUND HAVING AFFINITY FOR AMYLOID, AND PROCESS FOR PRODUCTION OF THE SAME” (NIHON MEDI-PHYSICS CO., LTD., priority 2007, published 2010).
